Results on 8 compounds are retold here after patent US20070155736A1, “FLUORINATED PHNO AND ANALOGUES THEREOF” (Clara Inc., priority 2005, published 2007).

Where a name gives a salt, the structure may show the parent alone.

The target in series [1] is T1, high-affinity state of dopamine D2 receptors (Rattus norvegicus, UniProt P61169).
T1 construct: from tissue; host or cells: rat striatum, homogenized
The series is described as follows: Biological potency on the high-affinity state of dopamine D2 receptors in rat homogenized striatal tissue. Format: binding. Conditions: [3H]-domperidone. The text has this:
(§1) It is herein submitted that the short-term use of tracer doses of a compound of the invention, wherein R^1 is C1-6alkyl in which one hydrogen atom on the alkyl chain in replaced with radioactive fluoro, in radioimaging procedures will be of diagnostic and therapeutic importance in dopamine-related disorders.

The next series has as its target T2, rat cloned D3 receptor (Rattus norvegicus, UniProt P19020).
T2 construct: expressed in transfected cells
The series is described as follows: Binding to rat cloned D3 receptor using 1.6 nM [3H]-raclopride.
Excerpt: as §1

The conditions of series [2]: in vivo; cited from earlier work.
For the next series, the target named is D2^High receptors (Homo sapiens, UniProt P14416). Conditions: human volunteer, PET.
D2^High receptors, sequence (P14416 whole entry): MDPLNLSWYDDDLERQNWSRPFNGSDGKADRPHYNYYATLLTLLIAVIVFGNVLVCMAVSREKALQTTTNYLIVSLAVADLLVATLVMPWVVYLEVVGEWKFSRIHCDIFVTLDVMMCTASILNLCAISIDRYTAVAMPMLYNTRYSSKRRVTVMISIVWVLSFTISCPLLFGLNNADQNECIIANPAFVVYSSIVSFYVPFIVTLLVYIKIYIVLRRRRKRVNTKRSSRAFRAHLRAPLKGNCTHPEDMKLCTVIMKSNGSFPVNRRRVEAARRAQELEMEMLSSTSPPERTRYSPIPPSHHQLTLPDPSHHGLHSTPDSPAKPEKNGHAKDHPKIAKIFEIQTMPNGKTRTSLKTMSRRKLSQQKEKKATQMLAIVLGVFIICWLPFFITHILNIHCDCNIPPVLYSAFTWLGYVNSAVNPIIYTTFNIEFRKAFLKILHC

T2 sequence (P19020 whole entry): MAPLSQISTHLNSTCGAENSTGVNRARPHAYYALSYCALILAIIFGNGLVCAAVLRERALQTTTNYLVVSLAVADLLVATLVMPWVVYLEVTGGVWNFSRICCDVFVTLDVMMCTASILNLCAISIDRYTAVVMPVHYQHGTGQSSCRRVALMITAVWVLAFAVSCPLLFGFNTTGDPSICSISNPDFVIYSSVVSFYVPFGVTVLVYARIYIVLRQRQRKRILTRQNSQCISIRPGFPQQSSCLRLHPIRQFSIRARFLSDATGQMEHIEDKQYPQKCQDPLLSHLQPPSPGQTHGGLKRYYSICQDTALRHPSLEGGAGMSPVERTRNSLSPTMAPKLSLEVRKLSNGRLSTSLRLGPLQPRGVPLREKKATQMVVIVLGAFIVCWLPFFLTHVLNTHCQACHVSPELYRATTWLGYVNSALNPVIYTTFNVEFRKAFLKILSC
T1 sequence (P61169 whole entry): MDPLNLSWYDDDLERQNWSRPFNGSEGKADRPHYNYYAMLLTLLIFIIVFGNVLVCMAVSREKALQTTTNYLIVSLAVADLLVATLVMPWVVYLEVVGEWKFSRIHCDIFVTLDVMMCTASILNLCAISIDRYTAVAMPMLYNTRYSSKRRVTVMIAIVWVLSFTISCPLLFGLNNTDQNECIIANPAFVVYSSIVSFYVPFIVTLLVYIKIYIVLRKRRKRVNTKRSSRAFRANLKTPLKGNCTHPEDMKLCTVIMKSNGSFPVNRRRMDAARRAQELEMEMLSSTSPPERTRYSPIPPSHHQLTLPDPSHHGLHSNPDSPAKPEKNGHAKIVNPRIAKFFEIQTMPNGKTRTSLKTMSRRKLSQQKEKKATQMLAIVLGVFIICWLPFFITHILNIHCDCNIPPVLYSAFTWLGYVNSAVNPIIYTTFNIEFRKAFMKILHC
Protocol for D2^High receptors: After a brief transmission scan for attenuation correction of the emission scans, emission scans are obtained every minute for the first 15 min, and then every 5 min until the end of the study at 75 min. The PET scanning is conducted by using a dedicated brain scanner, GEMS PC2048-15B PET camera (General Electric Medical Systems) that produces fifteen 6.5 mm-thick slices with a resolution of 5-6 mm. The volunteer is scanned lying down and the head fixed by using a thermoplastic face mask. For accurate anatomical position of the various brain regions, each volunteer receives an MRI (magnetic resonance imaging) scan. The regions of interest are transferred to the PET images by using Alice™ 3.1 software.
The regions of interest include the head of the caudate nucleus. […] Several hours after the initial injection of (+)-[^18F]-PHNO, a second injection of (+)-[^18F]-PHNO is given intravenously at the same time as a very low dose of non-radioactive (+)PHNO, (+)-F-PHNO or a very low dose of apomorphine. […] The density of the D2^High sites in the caudate nucleus that are labeled by (+)-[^18F]-PHNO is calculated, knowing the specific activity of the tracer injected and the amount of radioactivity detected by the positron imaging camera.

Take `Oc1ccc2c(c1)[C@H]1OCCN(CCCCCF)[C@@H]1CC2` [(+)-F-Pent-HNO, (4aR,10bR)-4-(5-Fluoropentyl)-3,4,4a,5,6,10b-hexahydro-2H-naphtho[1,2-b][1,4]oxazin-9-ol Hydrochloride]: the Kd – broadly, the equilibrium constant for the complex coming apart – was determined as 25 ± 4 nM in series [1] and 54 nM at rat cloned D3 receptor. Take `Oc1ccc2c(c1)[C@H]1OCCN(CCCCCCF)[C@@H]1CC2` [(+)-F-Hex-HNO, (4aR,10bR)-4-(6-Fluorohexyl)-3,4,4a,5,6,10b-hexahydro-2H-naphtho[1,2-b][1,4]oxazin-9-ol Hydrochloride]: the Kd in series [1] came to 52 ± 27 nM; on rat cloned D3 receptor it was 45 nM. Regarding `CCCN1CCO[C@@H]2c3cc(O)ccc3CC[C@H]21.Cl` [(+)PHNO, (+)-(4aR,10bR)-3,4,4a,5,6,10b-hexahydro-4-propyl-2H-naphth[1,2-b][1,4]oxazin-9-ol HCl], the “effect in Parkinson's disease” value in series [2] was “effective in alleviating Parkinson's disease”.

Take `Oc1ccc2c(c1)[C@H]1OCCN(CCCCF)[C@@H]1CC2` [(+)-F-But-HNO, (4aR,10bR)-4-(4-Fluorobutyl)-3,4,4a,5,6,10b-hexahydro-2H-naphtho[1,2-b][1,4]oxazin-9-ol Hydrochloride]: the equilibrium dissociation constant (Kd) in series [1] came out at 20 ± 8.7 nM; at rat cloned D3 receptor, 34 nM. In the same order, the values of `Oc1ccc2c(c1)[C@H]1OCCN(CCF)[C@@H]1CC2` [(+)-F-EHNO, (4aR,10bR)-4-(2-Fluoroethyl)-3,4,4a,5,6,10b-hexahydro-2H-naphtho[1,2-b][1,4]oxazin-9-ol Hydrochloride] are 1.7 ± 0.3 nM and 1.7 nM.

For the compound `Oc1ccc2c(c1)[C@H]1OCCN(CCCF)[C@@H]1CC2` (as salt: hydrochloride) [(+)-F-PHNO, (4aR,10bR)-4-(3-Fluoropropyl)-3,4,4a,5,6,10b-hexahydro-2H-naphtho[1,2-b][1,4]oxazin-9-ol Hydrochloride], the melting point – broadly, the temperature of the solid-liquid transition – lay within 253 to 255 °C. Consider `Oc1ccc2c(c1)[C@H]1OCCN(CCC[18F])[C@@H]1CC2` [(+)-[^18F]-PHNO, [^18F]-(4aR,10bR)-4-(3-fluoropropyl)-3,4,4a,5,6,10b-hexahydro-2H-naphtho[1,2-b][1,4]oxazin-9-ol], for which the “peak emission in the caudate nucleus” value on D2^High receptors (at 10 minutes after i.v. injection) was “about 0.22 % of the injected dose per kg”. The “time of peak emission in the caudate nucleus after intravenous injection” value on D2^High receptors (bolus plus infusion i.v.) is 10 min.

For `Oc1ccc2c(c1)[C@H]1OCCN(CCCF)[C@@H]1CC2` [(+)-F-PHNO, (4aR,10bR)-4-(3-Fluoropropyl)-3,4,4a,5,6,10b-hexahydro-2H-naphtho[1,2-b][1,4]oxazin-9-ol Hydrochloride], the Kd in series [1] turned out to be 0.46 ± 0.06 nM; at rat cloned D3 receptor it was 0.38 nM.
